Measurements: patent US20160340656A1, “PEPTIDES DERIVED FROM GSE 24.2 FOR TREATING DISEASES CAUSED BY OXIDATIVE STRESS AND DAMAGE TO DNA” (CONSEJO SUPERIOR DE INVESTIGACIONES CIENTÍFICAS (CSIC), priority 2013, published 2016)

Experiments:
[1] = system: AT3487 cells from patients with ataxia telangiectasia; assay: Damage to DNA in AT cells: phosphorylated histone H2AX (Ser139) foci after lentiviral expression of GSE24.2; assay type: cell-based, human
Method: FIG. 1. Determination of damage to DNA in AT cells: AT3784 AT cells were infected with a lentiviral vector expressing GSE24.2 or a GFP empty vector and were fixed 24 hours later to be processed and hybridised with an antibody against phosphorylated histone H2AX (Ser139). Control C-1787 cells were used as the negative control. Next they were hybridised with a fluorescein-labelled antibody and were stained with DAPI to locate the nuclei.
To perform this test, cell lines from patients with ataxia telangiectasia (AT, from the Coriell repository) with a mutation in the gene ATM and denominated AT3487 were used. Cell line C-1787 was used as the control cell line. The cells were infected with the bicistronic lentiviral vector pCMV-GFP-GSE24.2. After 48 hours of infection the cells were fixed with formaldehyde and then permeabilized by treating them with Triton X-100. The damage to DNA was estimated by studying the signal after hybridisation of the cells with an antibody against histone H2AX Ser139 and subsequent hybridisation with an antibody bound to fluorescein. The number of foci with stain for histone H2AX/nucleus was determined by confocal microscopy in a total of 200 cells and the data represented as a percentage of cells with a specific number of foci.

AT3189-P AT lymphoblasts = assay: ROS levels by DHE and flow cytometry in AT lymphoblasts; assay type: cell-based, human; conditions: AT3189-P cells, three weeks after infection, DHE, versus AT736C control cells
Method: FIG. 3. Determination of ROS levels in AT cells: AT3189-P AT cells were infected with a lentiviral vector expressing GSE24.2 or a GFP empty vector and three weeks later were loaded with the DHE reagent that detects Reactive Oxygen Species (ROS) levels. AT736C cells were used as a control. Relative fluorescence of the three cell lines and the proportion of cells with maximum intensity were determined through flow cytometry using wavelengths of 518 nm absorption and 605 nm emission. The data are shown as relative percentage of cells that emit at this wavelength.
One of the characteristics of AT cells is an increase in free radical content. This is due to the failure of function of protein ATM, which is able to maintain the redox balance in normal cells when the cells are exposed to environmental stress such as in vitro culture. In order to verify if expression of GSE24.2 has some impact on the regulation of free radical levels, we used the compound dihydroethidium (Hydroethidine), which enables quantifying the levels of free radicals in living cells. […] Three weeks after infection, the cells were loaded with the DHE reagent for 30 minutes and the proportion of cells with different free radical content was determined by flow cytometry.

[2] = system: p38 MAP kinase (phosphorylated on Thr180/Try182) in AT719 cells; assay: Levels of phosphorylated p38 by Western blot in AT cells; assay type: cell-based, human; conditions: three weeks after infection, control AT736 = 1
Source text: FIG. 4. Determination of the levels of phosphorylation of p38 in AT cells: AT719-P AT cells were infected with a lentiviral vector expressing GSE24.2 or a GFP empty vector and three weeks later protein extracts were obtained. AT719-P AT cells infected with GSE24.2 were also used and the population with the maximum fluorescence was selected using a sorter (AT AT719-P GSE24.2 sorter). AT736C cells were used as a control. The proteins were resolved on polyacrylamide gels and transferred to nitrocellulose membranes. The membrane was hybridised with a polyclonal antibody against the protein p38 phosphorylated on Thr180/Try182 and non-phosphoryated protein as a loading control. The relative values between the phosphorylated and non-phosphorylated proteins obtained (using the NIH-Image program) for the control cell line were considered as 1 and the others referred to it.
One of the characteristics of AT patient cells is a higher activation of p38 MAP kinase due to the failure of function of the ATM protein. This increase in activation of p38 triggers the process of cell death in AT cells and therefore a reduction in the number of neuronal cells. […] The signal obtained in both hybridisations was quantified with the NIH-Image program and relative values between the phosphorylated and non-phosphorylated proteins obtained for the control cell line were considered as 1.

AT719 cells = assay: Viability (MTS) in response to bleomycin in AT cells; assay type: cell-based, human; conditions: increasing concentrations of bleomycin, 72 hours, versus AT736C control
Method: FIG. 5. Determination of the viability in response to bleomycin in AT cells: AT719-P AT cells were infected with a lentiviral vector expressing GSE24.2 or a GFP empty vector and three weeks later they were treated with different doses of bleomycin. AT736C cells were used as a control. The cells were fixed after 72 hours of treatment and viability determined with the MTS reagent. The values represent the result of the test performed in triplicate and express the viability with respect to untreated cells.
Mutations in gene ATM sensitise cells of AT patients to treatment with ionizing radiation or radiomimetic drugs such as bleomycin. In order to verify if the protective effect induced by GSE24.2 in cells of AT patients also extends to radiomimetic agents, AT719 patient cells expressing pCMV-GFP-GSE24.2 or an empty vector expressing only GFP (GFP) were treated with increasing concentrations of bleomycin for 72 hours. After this time, cell viability was evaluated using MTS reagent. AT736C cells were used as a control.

[3] = system: telomerase activity in VA13 cells; assay: Telomerase activity (TRAP assay) in VA13 cells after peptide transfection; assay type: cell-based; conditions: 8 μg peptide
Method: FIG. 10. Determination of telomerase activity in VA13 cells after transfection of the peptides GSE4 and GSE5. In order to determine the effect of expression of peptides GSE4 and GSE5, VA13 cells were transfected through lipofection and 24 hours later a TRAP assay was performed for telomerase activity.
The other way of quantifying the activity of peptide GSE4 was to evaluate its ability to increase telomerase activity in VA13 cells. To do this, these cells were transfected with 8 μg of the two peptides GSE4 and GSE5. […], the cells were processed to test the telomerase activity by the TRAP method.

[4] = 200 cells, lentiviral expression of GSE24.2

Sequence	correction of overall damage to DNA [1] [%]	AT cells in which levels of damage to DNA are reduced [1, 4] [%]	AT cells in which overall damage to DNA is fully corrected [1, 4] [%]	ROS levels (AT3189-P AT lymphoblasts)	phosphorylated / non-phosphorylated p38 relative value [2]	viability after bleomycin (AT719 cells)	reactivation of telomerase activity [3]
GFINLDKPSNPSSHEVVAWIRRILRVEKTGHSGTLDPKVTGCLIVCIERATRLVK (GSE24.2; listed as Homo sapiens) [55-amino-acid peptide corresponding to the protein dyskerin; known from WO2007/090911]	40	25	20	reduced in AT3189-P GSE24.2 cells to values comparable to those found in the AT736C control cells	reduced significantly to levels similar to control cells	able to increase viability of AT719 cells to levels similar to control cells	–
GFINLDKPSNP [GSE4]	–	–	–	–	–	–	much higher activity in reactivating telomerase activity
